Target: CDK8 (Homo sapiens, UniProt P49336)
Experiment: LanthaScreen kinase activity assay (Thermo Fisher SelectScreen kinase profiling service)
Format: biochemical
Conditions: for IC50: CDK8, dose-response at 10,000, 3000, 1000, 300 and 100 nM; for inhibition at 10 µM: CDK8 inhibition, compounds tested at 10 μM, read-out: Inhibitory activity (10 μM)
Experimental: Selected compounds were tested using the Thermo Fisher Scientific SelectScreen kinase profiling service (www.thermofisher.com/selectscreen). The LanthaScreen kinase activity assay was used. In short, a reaction between fluorescein‐labeled substrate and ATP is performed in a container. The reaction is ceased with the addition of EDTA. A terbium‐labeled antibody is added to detect phosphorylated fluorescein‐labeled substrate. A ratio between the acceptor and donor signal is an indicator of the amount of phosphorylated substrate present in the reaction, thereby indicating kinase activity.

Sequence of CDK8 (P49336 whole entry): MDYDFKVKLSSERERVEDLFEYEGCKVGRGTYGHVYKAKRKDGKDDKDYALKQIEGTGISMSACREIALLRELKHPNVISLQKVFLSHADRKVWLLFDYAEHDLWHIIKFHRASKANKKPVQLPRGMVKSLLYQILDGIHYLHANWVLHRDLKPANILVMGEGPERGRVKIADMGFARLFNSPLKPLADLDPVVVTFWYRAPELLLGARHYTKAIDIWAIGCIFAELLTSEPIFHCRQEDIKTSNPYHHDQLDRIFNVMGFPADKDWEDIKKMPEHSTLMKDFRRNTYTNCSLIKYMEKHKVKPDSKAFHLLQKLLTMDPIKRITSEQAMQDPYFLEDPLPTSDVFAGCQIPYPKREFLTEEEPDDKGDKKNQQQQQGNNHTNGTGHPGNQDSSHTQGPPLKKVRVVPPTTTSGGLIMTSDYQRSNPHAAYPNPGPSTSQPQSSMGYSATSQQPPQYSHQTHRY
Sequence of CDK8 (P24863 whole entry partner): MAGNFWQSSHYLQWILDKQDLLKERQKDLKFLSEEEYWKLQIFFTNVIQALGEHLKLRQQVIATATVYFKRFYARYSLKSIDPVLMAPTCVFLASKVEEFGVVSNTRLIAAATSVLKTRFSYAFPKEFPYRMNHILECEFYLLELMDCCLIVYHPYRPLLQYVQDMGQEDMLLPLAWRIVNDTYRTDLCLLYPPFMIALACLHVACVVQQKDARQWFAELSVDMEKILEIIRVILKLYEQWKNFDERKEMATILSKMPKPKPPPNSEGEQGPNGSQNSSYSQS

`CCn1cc(-c2ccncc2)cc1C(=O)N1CCN(c2ccc(Cl)cc2)CC1` [P076‐1220] was tested, and the IC50 was 4440 nM and the inhibition at 10 µM was 71%.

In the case of `CCCn1cc(-c2ccncc2)cc1C(=O)N1CCC(C)CC1` [P076‐1448], the IC50 is reported as 2260 nM and the inhibition at 10 µM is reported as 73%.

For `COc1ccc2ncc(C#N)c(N3CCC(C(=O)Nc4ccc(F)c(C)c4)CC3)c2c1` [L483‐0192], the IC50 was 1840 nM and the inhibition at 10 µM was 71%.

`Cc1ccc(NC(=O)Nc2cnn(-c3ncncc3N3CCOCC3)c2)cc1C` [T479‐0984] gave an IC50 of 99.9 nM and an inhibition at 10 µM of over 90%.

`CCc1cc2c(N3CCCC(C(=O)N4CCN(c5ccc(F)cc5)CC4)C3)ncnc2s1` (stereo not drawn) [G887‐0711] showed an IC50 of 1160 nM and an inhibition at 10 µM of over 90%.

With `CC1CCN(C(=O)c2ccc3ncnc(N4CCCCC4)c3c2)CC1` [M628‐0340] the IC50 was 1920 nM and the inhibition at 10 µM was 77%.
